Read-outs that look alike come from different tables or passages of the source.
Columns and labels:
[1] = test system: E. coli, B. subtilis, S. aureus, and P. aeruginosa; type: cell-based; conditions: ½ PDB, pH 7; range over four bacteria
P. aeruginosa PAO1 = type: cell-based, Pseudomonas aeruginosa; conditions: ½ PDB adjusted to pH 7, no added NaCl; OD595, 24 h
[2] = Membrane lipid binding assay (protein-lipid overlay); conditions: detected with α-NaD2 (ZmD32) or α-NaD1 (NaD1) antibody; representative of three independent experiments
Description: Lipid binding assays were performed using Membrane Lipid Strips (Echelon Biosciences) as described in ([Poon et al., 2014]). ZmD32 binding to the lipids on the strips was detected using a polyclonal antibody generated in rabbits to the defensin NaD2 with which it shares 78.7% amino acid sequence identity ([Dracatos et al., 2014]). […] Lipid binding of NaD1 was performed as described in ([Poon et al., 2014]).

C. tropicalis ATCC 750 = type: cell-based, Candida tropicalis; conditions: OD595, 24 h
S. aureus = conditions: assays conducted in LB; ref van der Weerden et al., 2008; cited from earlier work
Description: (§1) The antibacterial activity of ZmD32 and NaD1 adds to a growing list of antibacterial defensins ([Sathoff and Samac, 2018]; [Sathoff et al., 2018]; [Velivelli et al., 2018]), a protein family that is best known for antifungal activity ([van der Weerden and Anderson, 2013]; [van der Weerden et al., 2013]; [Parisi et al., 2018]). The lack of reported antibacterial activity for plant defensins likely reflects the medium used for antibacterial assays, Here the ½ PDB pH 7 medium has a NaCl concentration of less than 10 mM. This concentration is considerably lower than growth media often used in anti ...

E. coli [3] = conditions: assays conducted in LB; ref van der Weerden et al., 2008; cited from earlier work
Description: as §1

C. albicans ATCC 90028 = type: cell-based, Candida albicans
F. graminearum PH-1 = type: cell-based, Fusarium graminearum; conditions: ½ PDB, no added NaCl; 5 × 10^4 spores/mL; OD595, 24 h
E. coli [4] = type: cell-based, Escherichia coli; conditions: strain TOP10, OD595, 24 h
C. glabrata ATCC 90030 = type: cell-based, Candida glabrata; conditions: OD595, 24 h
C. krusei = type: cell-based, Candida krusei; conditions: OD595, 24 h
C. parapsilosis = type: cell-based, Candida parapsilosis; conditions: OD595, 24 h
[5] = test system: prostate cancer (PC3) cells; assay: MTT cell viability assay, PC3; conditions: 48 h, twofold dilution series from 50 μM down, three independent replicates
Description: (§2) Leukemia monocyte lymphoma (U937) cells and prostate cancer (PC3) cells were cultured in RPMI-1640 medium (Sigma) buffered to pH 7.2 with HEPES and supplemented with 5–10% (v/v) fetal calf serum (FCS), 100 U/mL penicillin (Sigma) and 100 μg/mL streptomycin (Invitrogen). […] All cell lines were cultured at 37°C in a humidified atmosphere containing 5% CO2. Cell viability assays were performed using an MTT assay as described in ([Poon et al., 2014]). […] IC50 values were determined using GraphPad Prism 5 (GraphPad Software, CA, United States).

S. aureus ATCC 9144 = type: cell-based, Staphylococcus aureus; conditions: ½ PDB adjusted to pH 7, no added NaCl; OD595, 24 h
C. auris = type: cell-based, Candida auris; conditions: OD595, 24 h
B. subtilis = type: cell-based, Bacillus subtilis; conditions: ½ PDB adjusted to pH 7, no added NaCl, OD595, 24 h
C. albicans biofilms = assay: Anti-biofilm assay, Presto Blue viability; type: cell-based, Candida albicans; conditions: 24 h biofilm, 24 h treatment at 37°C in RPMI (132.1 mM sodium), twofold dilution from 300 μg/mL
[6] = test system: Leukemia monocyte lymphoma (U937) cells; assay: MTT cell viability assay, U937; conditions: 48 h, twofold dilution series from 50 μM down, three independent replicates
Description: as §2

[7] = ½ PDB + 100 mM NaCl, read-out: NaCl IC50
[8] = ½ PDB, no added NaCl, read-out: IC50

Description for human red blood cells: Human blood was obtained from the Australian Red Cross Blood Service (Melbourne, VIC, Australia) under Material Supply Agreement 14-11VIC-03. Hemolytic activity of defensins was assessed as described in ([Evans et al., 2013]). The degree of red blood cell (RBC) lysis was measured by absorbance at 412 nm, relative to water-lysed RBCs.

In the case of “NaD1: well-characterized antifungal plant defensin from Nicotiana alata floral tissues or recombinant from Pichia pastoris; used as standard (RECKTESNTFPGICITKPPCRKACISEKFTDGHCSKILRRCLCTKPC; UniProt Q8GTM0 26-72, looked up)”, the “Red blood cells lysed at concentrations up to 50 μM” value (human red blood cells) is reported as ≤ 2%, the IC50 [1] is reported as 2 to 5 µM and the IC50 (P. aeruginosa PAO1) is reported as 4.3 ± 0.3 µM. The “Lipids bound on membrane lipid strip” value [2] was “bound preferentially to phosphatidylinositol-4,5-bisphosphate [PI(4,5)P2] but also bound to phosphatidic acid (PA) and cardiolipin”, the IC50 (C. tropicalis ATCC 750; [7]) was 1300 ± 500 nM and the IC50 (C. tropicalis ATCC 750; [8]) was 400 ± 100 nM. For the same substance, the “Activity against S. aureus” value (S. aureus) was “no activity”, the “Activity against E. coli” value (E. coli [3]) was “no activity” and the “Activity against C. albicans in the presence of divalent metal salts” value (C. albicans ATCC 90028; 5 mM MgCl2 or 2 mM CaCl2, data not shown) was “lost activity”. The IC50 (C. albicans ATCC 90028; read-out: IC50) was 1600 ± 400 nM, the IC50 (C. albicans ATCC 90028; read-out: NaCl IC50) was > 10000 nM and the IC50 (F. graminearum PH-1) was 1000 ± 500 nM. The IC50 (E. coli [4]; ½ PDB adjusted to pH 7 + 100 mM NaCl, read-out: NaCl IC50) was > 10 µM, the IC50 (E. coli [4]; ½ PDB adjusted to pH 7, no added NaCl, read-out: IC50) was 4.6 ± 1.6 µM and the IC50 (C. glabrata ATCC 90030; [7]) was > 10000 nM. The IC50 (C. glabrata ATCC 90030; [8]) was 2800 ± 1000 nM, the IC50 (C. krusei; [7]) was > 10000 nM and the IC50 (C. krusei; [8]) was 1200 ± 400 nM. For the same substance, the IC50 (C. parapsilosis; [7]) was 3400 ± 1200 nM, the IC50 (C. parapsilosis; [8]) was 1200 ± 300 nM and the “Effect on viability of PC3 cells” value [5] was “decreased viability of all three cell lines at much lower concentrations than ZmD32”. For the same substance, the IC50 (S. aureus ATCC 9144) was 5 ± 0.5 µM, the IC50 (C. auris; [7]) was > 10000 nM and the IC50 (C. auris; [8]) was 2900 ± 500 nM. For the same substance, the IC50 (B. subtilis) was 2000 ± 200 nM, the “Activity against established C. albicans biofilms” value (C. albicans biofilms) was “no activity” and the “Effect on viability of U937 cells” value [6] was “decreased viability of all three cell lines at much lower concentrations than ZmD32”.

From publication PMC6474387, “Salt-Tolerant Antifungal and Antibacterial Activities of the Corn Defensin ZmD32” (Frontiers in Microbiology, 2019)
